Holding throughout (type): functional
The test system of assay [1] is MCF7. Kind of assay: Induction of apoptosis in human MCF7 cells assessed as dead cells at 50 nM measured after 48 hrs by Annexin V-FITC staining based flow cytometry analysis (reference value: 0.02%).
Assay [2] deals with MCF7. Kind of assay: Induction of apoptosis in human MCF7 cells assessed as dead cells at 25 nM measured after 48 hrs by Annexin V-FITC staining based flow cytometry analysis (reference value: 0.02%). (In general: In flow cytometry, cells or beads pass a laser one at a time.)
For assay [3], the system named is MCF7. The assay is described as follows: Induction of apoptosis in human MCF7 cells assessed as late apoptotic cells at 50 nM measured after 48 hrs by Annexin V-FITC staining based flow cytometry analysis (reference value: 0.14%).
Assay [4] deals with MCF7. Kind of assay: Induction of cell cycle arrest in human MCF7 cells assessed as accumulation of cells at G2 phase at 50 nM incubated for 48 hrs by PI/Rnase staining based flow cytometry analysis (reference value: […]%).
The test system of assay [5] is MCF7. Kind of assay: Induction of cell cycle arrest in human MCF7 cells assessed as accumulation of cells at S phase at 25 nM incubated for 48 hrs by PI/RNase staining based flow cytometry analysis (reference value: 44.87%).
Assay [6] concerns MCF7. Kind of assay: Induction of cell cycle arrest in human MCF7 cells assessed as accumulation of cells at G1 phase at 50 nM incubated for 48 hrs by PI/RNase staining based flow cytometry analysis (reference value: 48.01%).
Assay [7] has as its system MCF7. Kind of assay: Induction of cell cycle arrest in human MCF7 cells assessed as accumulation of cells at G2 phase at 25 nM incubated for 48 hrs by PI/Rnase staining based flow cytometry analysis (reference value: […]%).
Assay [8] relates to MCF7. Kind of assay: Induction of apoptosis in human MCF7 cells assessed as late apoptotic cells at 25 nM measured after 48 hrs by Annexin V-FITC staining based flow cytometry analysis (reference value: 0.14%).
The test system of assay [9] is MCF7. Kind of assay: Induction of cell cycle arrest in human MCF7 cells assessed as accumulation of cells at G1 phase at 25 nM incubated for 48 hrs by PI/RNase staining based flow cytometry analysis (reference value: 48.01%).
The test system of assay [10] is MCF7. The assay is described as follows: Induction of apoptosis in human MCF7 cells assessed as live cells at 25 nM measured after 48 hrs by Annexin V-FITC staining based flow cytometry analysis (reference value: 99.26%).
For assay [11], the system named is MCF7. Kind of assay: Induction of cell cycle arrest in human MCF7 cells assessed as accumulation of cells at S phase at 50 nM incubated for 48 hrs by PI/RNase staining based flow cytometry analysis (reference value: 44.87%).
The test system of assay [12] is MCF7. The assay is described as follows: Induction of apoptosis in human MCF7 cells assessed as early apoptotic cells at 50 nM measured after 48 hrs by Annexin V-FITC staining based flow cytometry analysis (reference value: 0.58%).
Assay [13] deals with MCF7. Kind of assay: Induction of apoptosis in human MCF7 cells assessed as live cells at 50 nM measured after 48 hrs by Annexin V-FITC staining based flow cytometry analysis (reference value: 99.26%).
The subject of assay [14] is MCF7. The assay is described as follows: Induction of apoptosis in human MCF7 cells assessed as early apoptotic cells at 25 nM measured after 48 hrs by Annexin V-FITC staining based flow cytometry analysis (reference value: 0.58%).

For `O=C(NC[C@H](O)CN1CCc2ccccc2C1)c1cc(NC2COC2)ncn1`, the Activity in assay [1] is recorded as 3.17%; in assay [2], 1.47%; in assay [3], 4.31%; in [4], 9.98%; in [5] it was 43.56%; in assay [6], 66.11%. Besides, the Activity in [7] turned out to be 0.13%; in assay [8] it was 0.83%; in [9], 56.22%; in [10] it was 96.29%; in assay [11], 22.78%; in assay [12], 3.79%. In addition, the Activity in [13] is reported as 88.73%; in [14], 1.41%.
